The record followed here is patent US7285556B2, “Thienopyrimidine-based inhibitors of the src family” (Board of Regents, The University of Texas Systems, priority 2000, dated 2007).

Like-named read-outs stand apart in the source and are kept apart here.

One assay has as its target T1, Csk (Homo sapiens, UniProt P41240).
T1 construct: GST (glutathione-S-transferase) (N); made in house; host or cells: E. coli (pGEX vector)
Description: Csk tyrosine kinase activity, poly E4Y and 32P-ATP. Type of assay: biochemical. Conditions: screening assay, 50 μg/ml poly E4Y, 0.2 mM 32P-ATP. As for the experimental part: Recombinant human Src was expressed using the baculovirus-insect cell system and purified as published (Budde et al., 1993 and 2000). Recombinant Csk and the FGF receptor (FGFr) were expressed as glutathione-S-transferase fusion proteins using the pGEX expression vector and E. coli, and purified as described (Sun & Budde, 1995).
The tyrosine kinase activity of Src, Csk and FGFr was determined using poly E4Y and ^32P-ATP. Briefly, enzymes were assayed in a reaction mixture consisting of 0.15 M EPPS-NaOH (pH 8.0) with 6 mM MgCl2, 0.2 mM γ^32P-ATP (0.2-0.4 mCi/μmol), 10% glycerol, 0.1% Triton X-100, and poly E4Y. Poly E4Y is a synthetic peptide whose phosphorylation is measured in this assay by the addition of the radioactively labeled phosphate from the ATP (Budde et al., 1995). […] When ATP was varied (0, 50, 100 and 250 μM), poly E4Y was kept constant at 150 μg/ml.

The next assay addresses T2, Recombinant human Src (Homo sapiens, UniProt P12931).
T2 construct: made in house; host or cells: baculovirus-insect cell system
Description: Src tyrosine kinase activity, poly E4Y and 32P-ATP. Type of assay: biochemical. A digest of the protocol: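 Recombinant GST-Csk (E. coli) or baculovirus-expressed human Src assayed on poly E4Y in 0.15 M EPPS-NaOH pH 8.0, 6 mM MgCl2, 0.2 mM γ32P-ATP, 10% glycerol, 0.1% Triton X-100. Read-out is 32P incorporation into poly E4Y; for ATP variation (0–250 μM), poly E4Y held at 150 μg/ml.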

Where [1] appears, read: Table 2, read-out: Src IC50 (especially good inhibitors of Src).
The mark [2] stands for this setting: read-out: IC50 (preferred compounds for treatment of Src family-related disease).

T2 sequence (P12931 whole entry): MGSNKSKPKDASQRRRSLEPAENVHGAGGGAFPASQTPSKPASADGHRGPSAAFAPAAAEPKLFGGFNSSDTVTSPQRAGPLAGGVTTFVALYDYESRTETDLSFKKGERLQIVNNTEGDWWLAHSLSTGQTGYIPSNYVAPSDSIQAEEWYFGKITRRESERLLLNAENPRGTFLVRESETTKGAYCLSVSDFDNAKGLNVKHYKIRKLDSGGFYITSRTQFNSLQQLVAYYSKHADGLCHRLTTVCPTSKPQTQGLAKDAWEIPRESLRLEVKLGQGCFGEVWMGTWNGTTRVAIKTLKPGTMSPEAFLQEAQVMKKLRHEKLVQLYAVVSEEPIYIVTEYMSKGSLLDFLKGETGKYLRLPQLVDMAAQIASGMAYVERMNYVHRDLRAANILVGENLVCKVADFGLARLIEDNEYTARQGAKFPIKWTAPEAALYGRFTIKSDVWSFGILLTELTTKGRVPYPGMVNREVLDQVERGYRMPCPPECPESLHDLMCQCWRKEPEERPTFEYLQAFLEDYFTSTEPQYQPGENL
T1 sequence (P41240 whole entry, species assumed): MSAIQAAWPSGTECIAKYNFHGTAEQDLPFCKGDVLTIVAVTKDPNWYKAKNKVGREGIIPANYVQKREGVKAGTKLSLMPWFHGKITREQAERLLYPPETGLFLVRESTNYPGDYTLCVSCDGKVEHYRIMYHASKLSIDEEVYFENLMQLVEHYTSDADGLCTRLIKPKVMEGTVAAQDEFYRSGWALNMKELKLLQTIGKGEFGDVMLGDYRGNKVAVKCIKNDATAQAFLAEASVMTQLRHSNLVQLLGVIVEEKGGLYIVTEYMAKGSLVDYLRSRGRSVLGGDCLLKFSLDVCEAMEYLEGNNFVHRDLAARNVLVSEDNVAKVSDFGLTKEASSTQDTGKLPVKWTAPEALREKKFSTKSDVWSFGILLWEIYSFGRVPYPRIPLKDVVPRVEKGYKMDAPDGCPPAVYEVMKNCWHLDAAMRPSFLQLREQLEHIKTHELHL

Consider `COc1ccc(C=NNc2ncnc3c(C)c(-c4ccc(CO)cc4)sc23)cc1O` [Compound 439, 3-Hydroxy-4-methoxybenzaldehyde(6-(4-hydroxymethylphenyl)-7-methylthieno[3,2-d]pyrimidin-4-yl)hydrazone], for which the IC50 on Csk was more than 119000 nM; on Recombinant human Src (setting [1]), not above 2000 nM; at Recombinant human Src (setting [2]), less than 2000 nM.
On the same counts, the results for `Cc1csc2c(NN=Cc3cccc(O)c3)ncnc12` [Compound 32, 3-Hydroxybenzaldehyde(7-methylthieno[3,2-d]pyrimidin-4-yl)hydrazone] are more than 176000 nM, not above 2000 nM and less than 2000 nM.
In the same order, the values of `COc1ccccc1-c1sc2c(NN=Cc3cccnc3)ncnc2c1C` [Compound 432, 3-Pyridinecarboxaldehyde(6-(2-methoxyphenyl)-7-methylthieno[3,2-d]pyrimidin-4-yl)hydrazone] are more than 133000 nM, not above 2000 nM and less than 2000 nM.
In the same order, the values of `Cc1c(-c2ccccc2Cl)sc2c(NN=Cc3cccs3)ncnc12` [Compound 391, 2-Thiophenecarboxaldehyde(6-(2-chlorophenyl)7-methylthieno[3,2-d]pyrimidin-4-yl)hydrazone] are more than 130000 nM, not above 2000 nM and less than 2000 nM.
Regarding `COc1ccc(C=NNc2ncnc3c(C)csc23)cc1OC` [Compound 17, 3,4-Dimethoxybenzaldehyde(7-methylthieno[3,2-d]pyrimidin-4-yl)hydrazone], the IC50 was more than 152000 nM at Csk, not above 2000 nM on Recombinant human Src (setting [1]) and less than 2000 nM on Recombinant human Src (setting [2]).
In the same order, the values of `COc1ccc(C=NNc2ncnc3c(C)c(I)sc23)cc1O` [Compound 375, 3-Hydroxy-4-methoxybenzaldehyde(6-iodo-7-methylthieno[3,2-d]pyrimidin-4-yl)hydrazone] are more than 114000 nM, not above 2000 nM and less than 2000 nM.
On the same counts, the results for `C(=NNc1ncnc2c1sc1ncccc12)c1cccs1` [Compound 244, 2-Thiophenecarboxaldehyde(pyrido[3′,2′:4,5]thieno[3,2-d]pyrimidin-4-yl)hydrazone] are more than 161000 nM, not above 2000 nM and less than 2000 nM.
On the same counts, the results for `CCc1csc2c(NN=Cc3cccnc3)ncnc12` [Compound 257, 3-Pyridinecarboxaldehyde(7-ethylthieno[3,2-d]pyrimidin-4-yl)hydrazone] are more than 176000 nM, not above 2000 nM and less than 2000 nM.
`C(=NNc1ncnc2c(-c3ccsc3)csc12)c1cccnc1` [Compound 209]: the IC50 is more than 148000 nM against Csk and more than 148000 nM at Recombinant human Src (screening assay, 50 μg/ml poly E4Y, 0.2 mM 32P-ATP, read-out: Src IC50).
For `Cc1csc2c(NN=Cc3ccc[nH]3)ncnc12` [Compound 30, 1H-Pyrrole-2-carboxaldehyde(7-methylthieno[3,2-d]pyrimidin-4-yl)hydrazone], the IC50 is more than 194000 nM against Csk, not above 2000 nM at Recombinant human Src (setting [1]) and less than 2000 nM on Recombinant human Src (setting [2]).
In the same order, the values of `Brc1cc2ncnc(NN=Cc3cccnc3)c2s1` [Compound 221, 3-Pyridinecarboxaldehyde(6-bromothieno[3,2-d]pyrimidin-4-yl)hydrazone] are more than 150000 nM, not above 2000 nM and less than 2000 nM.
Take `Cc1c(-c2ccccc2)sc2c(NN=Cc3cccs3)ncnc12` [Compound 361, 2-Thiophenecarboxaldehyde(7-methyl-6-phenylthieno[3,2-d]pyrimidin-4-yl)hydrazone]: the values for the IC50 on Csk, on Recombinant human Src (setting [1]) and at Recombinant human Src (setting [2]) were more than 143000 nM, not above 2000 nM and less than 2000 nM, respectively.
In the same order, the values of `Cc1c(/C=C/c2ccccc2)sc2c(NN=Cc3cccnc3)ncnc12` [Compound 447, 3-Pyridinecarboxaldehyde(7-methyl-6-(trans-2-phenylvinyl)-thieno[3,2-d]pyrimidin-4-yl)hydrazone] are more than 135000 nM, not above 2000 nM and less than 2000 nM.
In the case of `CCOc1cc(C=NNc2ncnc3c(C)csc23)ccc1O` [Compound 50, 3-Ethoxy-4-hydroxybenzaldehyde(7-methylthieno[3,2-d]pyrimidin-4-yl)hydrazone], the IC50 against Csk is more than 152000 nM; on Recombinant human Src (setting [1]), not above 2000 nM; on Recombinant human Src (setting [2]) it was less than 2000 nM.
In the same order, the values of `COc1ccc(C=NNc2ncnc3c(C)c(-c4ccccc4)sc23)cc1O` [Compound 362, 3-Hydroxy-4-methoxybenzaldehyde(7-methyl-6-phenylthieno[3,2-d]pyrimidin-4-yl)hydrazone] are more than 128000 nM, not above 2000 nM and less than 2000 nM.
`COc1cccc(-c2sc3c(NN=Cc4cccs4)ncnc3c2C)c1` [Compound 428, 2-Thiophenecarboxaldehyde(6-(3-methoxyphenyl)-7-methylthieno[3,2-d]pyrimidin-4-yl)hydrazone]: the IC50 was more than 131000 nM against Csk, not above 2000 nM on Recombinant human Src (setting [1]) and less than 2000 nM at Recombinant human Src (setting [2]).
On the same counts, the results for `Fc1ccc(C=NNc2ncnc3cc(-c4ccccc4)sc23)cc1` [Compound 75, 4-Fluorobenzaldehyde(6-phenylthieno[3,2-d]pyrimidin-4-yl)hydrazone] are more than 144000 nM, not above 2000 nM and less than 2000 nM.
In the same order, the values of `COc1ccc(-c2sc3c(NN=Cc4cccnc4)ncnc3c2C)cc1` [Compound 422, 3-Pyridinecarboxaldehyde(6-(4-methoxyphenyl)-7-methylthieno[3,2-d]pyrimidin-4-yl)hydrazone] are more than 133000 nM, not above 2000 nM and less than 2000 nM.
In the same order, the values of `COc1cccc(C=NNc2ncnc3c(C)csc23)c1` [Compound 137, 3-Methoxybenzaldehyde(7-methylthieno[3,2-d]pyrimidin-4-yl)hydrazone] are more than 168000 nM, not above 2000 nM and less than 2000 nM.
Take `COc1ccc(C=NNc2ncnc3c2sc2ncccc23)cc1O` [Compound 247, 3-Hydroxy-4-methoxybenzaldehyde(pyrido[3′,2′:4,5]thieno[3,2-d]pyrimidin-4-yl)hydrazone]: the IC50 was more than 142000 nM on Csk, not above 2000 nM at Recombinant human Src (setting [1]) and less than 2000 nM on Recombinant human Src (setting [2]).
In the case of `Cc1csc2c(NN=Cc3ccco3)ncnc12` [Compound 31, 2-Furancarboxaldehyde(7-methylthieno[3,2-d]pyrimidin-4-yl)hydrazone], the IC50 at Csk is more than 194000 nM; on Recombinant human Src (setting [1]), not above 2000 nM; at Recombinant human Src (setting [2]), less than 2000 nM.
On the same counts, the results for `COc1cc(C=NNc2ncnc3c(C)csc23)ccc1O` [Compound 53, 4-Hydroxy-3-methoxybenzaldehyde(7-methylthieno[3,2-d]pyrimidin-4-yl)hydrazone] are more than 159000 nM, not above 2000 nM and less than 2000 nM.
In the same order, the values of `Cc1csc2c(NN=Cc3cccc(F)c3)ncnc12` [Compound 52, 3-Fluorobenzaldehyde(7-methylthieno[3,2-d]pyrimidin-4-yl)hydrazone] are more than 175000 nM, not above 2000 nM and less than 2000 nM.
On the same counts, the results for `Cc1csc2c(NN=Cc3ccccc3)ncnc12` [Compound 7, Benzaldehyde(7-methylthieno[3,2-d]pyrimidin-4-yl)hydrazone] are more than 186000 nM, not above 2000 nM and less than 2000 nM.
For `C(=NNc1ncnc2cc(-c3ccccc3)sc12)c1ccncc1` [Compound 252, 4-Pyridinecarboxaldehyde(6-phenylthieno[3,2-d]pyrimidin-4-yl)hydrazone], the results for the IC50 at Csk, on Recombinant human Src (setting [1]) and at Recombinant human Src (setting [2]) were more than 151000 nM, not above 2000 nM and less than 2000 nM, respectively.
In the same order, the values of `Clc1ccccc1-c1cc2ncnc(NN=Cc3cccnc3)c2s1` [Compound 317, 3-Pyridinecarboxaldehyde(6-(2-chlorophenyl)thieno[3,2-d]pyrimidin-4-yl)hydrazone] are more than 137000 nM, not above 2000 nM and less than 2000 nM.
Consider `Cc1c(-c2cccc(CO)c2)sc2c(NN=Cc3cccs3)ncnc12` [Compound 442, 2-Thiophenecarboxaldehyde(6-(3-hydroxymethylphenyl)-7-methylthieno[3,2-d]pyrimidin-4-yl)hydrazone], for which the values for the IC50 on Csk, at Recombinant human Src (setting [1]) and on Recombinant human Src (setting [2]) were more than 131000 nM, not above 2000 nM and less than 2000 nM, respectively.
For the compound `Brc1csc2c(NN=Cc3cccnc3)ncnc12` [Compound 180, 3-Pyridinecarboxaldehyde(7-bromothieno[3,2-d]pyrimidin-4-yl)hydrazone], the values for the IC50 on Csk, on Recombinant human Src (setting [1]) and on Recombinant human Src (setting [2]) were more than 150000 nM, not above 2000 nM and less than 2000 nM, respectively.
On the same counts, the results for `Cc1c(-c2ccsc2)sc2c(NN=Cc3cccs3)ncnc12` [Compound 381, 2-Thiopnhenecarboxaldehyde(7-methyl-6-(3-thienyl)thieno[3,2-d]pyrimidin-4-yl)hydrazone] are more than 140000 nM, not above 2000 nM and less than 2000 nM.
